Reference: US9227967B2, “Inhibitor compounds of semicarbazide-sensitive amine oxidases” (Proximagen Limited, priority 2010, dated 2016)
Where a name gives a salt, the structure may show the parent alone.

Molecular target: T1, human SSAO (Homo sapiens, UniProt Q16853)
T1 construct: made in house
T1 sequence (Q16853 29-763 limits assumed): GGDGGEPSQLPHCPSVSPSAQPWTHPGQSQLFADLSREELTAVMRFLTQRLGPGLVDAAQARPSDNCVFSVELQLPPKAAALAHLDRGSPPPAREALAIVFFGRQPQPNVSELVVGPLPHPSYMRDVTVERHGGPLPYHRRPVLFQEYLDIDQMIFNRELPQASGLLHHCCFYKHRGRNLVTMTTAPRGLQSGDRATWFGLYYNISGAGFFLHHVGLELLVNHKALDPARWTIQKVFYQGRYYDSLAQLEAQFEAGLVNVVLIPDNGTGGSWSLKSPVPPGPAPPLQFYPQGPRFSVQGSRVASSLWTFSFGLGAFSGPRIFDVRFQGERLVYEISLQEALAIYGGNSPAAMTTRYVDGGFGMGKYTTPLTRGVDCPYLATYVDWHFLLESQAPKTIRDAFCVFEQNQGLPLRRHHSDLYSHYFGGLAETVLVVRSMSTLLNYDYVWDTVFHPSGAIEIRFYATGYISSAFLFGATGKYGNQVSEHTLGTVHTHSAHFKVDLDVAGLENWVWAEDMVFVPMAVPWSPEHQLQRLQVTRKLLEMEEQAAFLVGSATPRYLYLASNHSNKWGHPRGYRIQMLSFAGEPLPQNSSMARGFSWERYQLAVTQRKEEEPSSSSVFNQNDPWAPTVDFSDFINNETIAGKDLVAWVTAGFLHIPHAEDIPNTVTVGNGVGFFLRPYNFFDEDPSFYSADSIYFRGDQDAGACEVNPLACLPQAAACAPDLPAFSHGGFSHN
Experiment: SSAO enzyme inhibition assay (benzylamine substrate; HRP-coupled hydrogen peroxide detection or 14C-benzaldehyde detection)
Type: biochemical
Details: purified recombinantly expressed human SSAO, benzylamine as substrate, r.t.; read-out: SSAO inhibitory activity IC50
Procedure: All primary assays were performed at r.t. with purified recombinantly expressed human SSAO. Enzyme was prepared essentially as described in Öhman et al. (Protein Expression and Purification 46 (2006) 321-331). In addition, secondary- and selectivity assays were performed using SSAO prepared from various tissues or purified rat recombinant SSAO. The enzyme activity was assayed with benzylamine as substrate by measuring either benzaldehyde production, using ^14C-labeled substrate, or by utilizing the production of hydrogen peroxide in a horseradish peroxidise (HRP) coupled reaction. Briefly, test compounds were dissolved in dimethyl sulfoxide (DMSO) to a concentration of 10 mM. Dose-response measurements were assayed by either creating 1:10 serial dilutions in DMSO to produce a 7 point curve or by making 1:3 serial dilutions in DMSO to produce 11 point curves. The top concentrations were adjusted depending on the potency of the compounds and subsequent dilution in reaction buffer yielded a final DMSO concentration ≦2%.
In a horseradish peroxidise (HRP) coupled reaction, hydrogen peroxide oxidation of 10-acetyl-3,7-dihydroxyphenoxazine produced resorufin, which is a highly fluorescent compound (Zhout and Panchuk-Voloshina. Analytical Biochemistry 253 (1997) 169-174; Amplex® Red Hydrogen Peroxide/peroxidise Assay kit, Invitrogen A22188). Enzyme and compounds in 50 mM sodium phosphate, pH 7.4 were set to pre-incubate in flat-bottomed microtiter plates for approximately 15 minutes before initiating the reaction by addition of a mixture of HRP, benzylamine and Amplex reagent. Benzylamine concentration was fixed at a concentration corresponding to the Michaelis constant, determined using standard procedures. Fluorescence intensity was then measured at several time points during 1-2 hours, exciting at 544 nm n and reading the emission at 590 nm. For the human SSAO assay final concentrations of the reagents in the assay wells were: SSAO enzyme 1 μg/ml, benzylamine 100 μM, Amplex reagent 20 μM, HRP 0.1 U/mL and varying concentrations of test compound. The inhibition was measured as % decrease of the signal compared to a control without inhibitor (only diluted DMSO). The background signal from a sample containing no SSAO enzyme was subtracted from all data points. Data was fitted to a four parameter logistic model and IC50 values were calculated using the GraphPad Prism 4 or XLfit 4 programs.
SSAO activity was assayed using 14C-labeled benzylamine and analysed by measuring radioactive benzaldehyde. In a white 96-well optiplate (Packard), 20 μL of diluted test compound was pre-incubated at r.t. with 20 μL SSAO enzyme for approximately 15 minutes with continuous agitation. All dilutions were made with PBS. The reaction was initiated by adding 20 μL of the benzylamine substrate solution containing [7-14C] Benzylamine hydrochloride (CFA589, GE Healthcare). The plate was incubated for 1 hour as above after which the reaction was stopped by acidification (10 μL 1 M HCl). Then 90 μL Micro Scint-E solution (Perkin-Elmer) was added to each well and the plate was continuously mixed for 15 minutes. Phase separation occurred instantly and activity was read in a Topcount scintillation counter (Perkin-Elmer). In the final reaction well, human recombinant SSAO concentration was 10 μg/ml. In order to optimize sensitivity, the substrate concentration was decreased as compared to the HRP coupled assay in order to get a higher fraction of radioactive product. In the human SSAO assay, benzylamine concentration was 40 μM (0.2 μCi/mL). Data was analysed as above.

| Structure (SMILES) | IC50 [nM] |
| --- | --- |
| Cc1ccc(-n2nc(N3CCOCC3C(=O)NCCN)c3ccncc32)cc1 (stereo not drawn) [Compound 79, N-(2-Aminoethyl)-4-[1-(4-methylphenyl)-1H-pyrazolo[3,4-c]pyridin-3-yl]morpholine-3-carboxamide dihydrochloride] | 100 to 500 |
| N#CCCCN1CCC(c2cn(-c3ccc(Cl)cc3)c3cnccc23)CC1 [Compound 22, 4-{4-[1-(4-Chlorophenyl)-1H-pyrrolo[2,3-c]pyridin-3-yl]piperidin-1-yl}butanenitrile hydrochloride] | 100 to 500 |
| Fc1ccc(-n2nc(N3CCOCC3)c3ccncc32)cc1 [Compound 55, 4-[1-(4-Fluorophenyl)-1H-pyrazolo[3,4-c]pyridin-3-yl]morpholine] | 100 to 500 |
| Clc1ccc(-c2cn(C3CCOC3)c3ccncc23)cc1 (stereo not drawn) [Compound 3, 3-(4-Chlorophenyl)-1-(oxolan-3-yl)-1H-pyrrolo[3,2-c]pyridine] | 100 to 500 |
| Cc1ccc(-n2nc(C3CCOCC3)c3ccncc32)cc1 [Compound 82, 1-(4-Methylphenyl)-3-(oxan-4-yl)-1H-pyrazolo[3,4-c]pyridine] | 100 to 500 |
| OCCC1CCN(Cc2cn(-c3ccc(Cl)cc3)c3cnccc23)CC1 [Compound 27, 2-(1-{[1-(4-Chlorophenyl)-1H-pyrrolo[2,3-c]pyridin-3-yl]methyl}piperidin-4-yl)ethan-1-ol] | 500 to 2500 |
| Cc1ccc(-n2nc(N3CCOCC3)c3ccncc32)cc1 [Compound 57, 2,2,2-Trifluoroacetic acid; 4-[1-(4-methylphenyl)-1H-pyrazolo[3,4-c]pyridin-3-yl]morpholine] | < 100 |
| Clc1ccc(-n2nc(N3CCOCC3)c3ccncc32)cc1 [Compound 56, 4-[1-(4-Chlorophenyl)-1H-pyrazolo[3,4-c]pyridin-3-yl]morpholine] | < 100 |
| Cc1ccc(-n2nc(N3CCNC(=O)C3)c3ccncc32)cc1 [Compound 68, 4-[1-(4-Methylphenyl)-1H-pyrazolo[3,4-c]pyridin-3-yl]piperazin-2-one] | < 100 |
| OC1CCN(c2nn(-c3ccc(Cl)cc3)c3cnccc23)CC1 [Compound 53, 1-[1-(4-Chlorophenyl)-1H-pyrazolo[3,4-c]pyridin-3-yl]piperidin-4-ol] | < 100 |
| Clc1ccc(-n2nc(C3CCOCC3)c3ccncc32)cc1 [Compound 80, 1-(4-Chlorophenyl)-3-(oxan-4-yl)-1H-pyrazolo[3,4-c]pyridine] | 100 to 500 |
| NCC(=O)N1CCC(c2cn(-c3ccc(Cl)cc3)c3cnccc23)CC1 [Compound 16, 2-Amino-{4-[1-(4-chlorophenyl)-1H-pyrrolo[2,3-c]pyridin-3-yl]piperidin-1-yl}-ethan-1-one hydrochloride] | < 100 |
| Clc1ccc(-n2nc(C3CCOCC3)c3ncncc32)cc1 [Compound 99, 1-(4-Chlorophenyl)-3-(oxan-4-yl)-1H-pyrazolo[4,3-d]pyrimidine] | 500 to 2500 |
| CN(C)CC(=O)N1CCC(c2cn(-c3ccc(Cl)cc3)c3cnccc23)CC1 [Compound 14, 1-{4-[1-(4-Chlorophenyl)-1H-pyrrolo[2,3-c]pyridin-3-yl]piperidin-1-yl}-2-(dimethyl-amino)ethan-1-one] | 100 to 500 |
| Clc1ccc(-n2cc(C3CCOCC3)c3ccncc32)nc1 [Compound 103, 5-Chloro-2-[3-(oxan-4-yl)-1H-pyrrolo[2,3-c]pyridin-1-yl]pyridine] | 100 to 500 |
| Clc1ccc(-n2cc(C3CCN(Cc4cc[nH]n4)CC3)c3ccncc32)cc1 [Compound 19, 4-[1-(4-Chlorophenyl)-1H-pyrrolo[2,3-c]pyridin-3-yl]-1-(1H-pyrazol-3-ylmethyl)-piperidine] | 100 to 500 |
| COc1cc2c(C3CCOCC3)nn(-c3ccc(Cl)cc3)c2cn1 [Compound 96, 1-(4-Chlorophenyl)-5-methoxy-3-(oxan-4-yl)-H-pyrazolo[3,4-c]pyridine] | 500 to 2500 |
| Fc1cncc2c1c(C1CCOCC1)nn2-c1ccc(Cl)cc1 [Compound 88, 1-(4-Chlorophenyl)-4-fluoro-3-(oxan-4-yl)-1H-pyrazolo[3,4-c]pyridine] | 500 to 2500 |
| CCOC(=O)N1CCC(c2nn(-c3ccc(Cl)cc3)c3cnccc23)CC1 [Compound 92, Ethyl 4-[1-(4-chlorophenyl)-1H-pyrazolo[3,4-c]pyridin-3-yl]piperidine-1-carboxylate] | 100 to 500 |
| Clc1ccc(-c2cn(CC3CCOC3)c3ccncc23)cc1 (stereo not drawn) [Compound 1, 3-(4-Chlorophenyl)-1-(oxolan-3-ylmethyl)-1H-pyrrolo[3,2-c]pyridine] | 500 to 2500 |
| O=C(CO)N1CCC(c2cn(-c3ccc(Cl)cc3)c3cnccc23)CC1 [Compound 15, 1-{4-[1-(4-Chlorophenyl)-1H-pyrrolo[2,3-c]pyridine-3-yl]piperidin-1-yl}-2-hydroxyethan-1-one] | < 100 |
| CC1CN(c2nn(-c3ccc(Cl)cc3)c3cnccc23)CCO1 (stereo not drawn) [Compound 59, 4-[1-(4-Chlorophenyl)-1H-pyrazolo[3,4-c]pyridin-3-yl]-2-methylmorpholine] | < 100 |
| Cc1ccc(-n2nc(C3CNCCO3)c3ccncc32)cc1 (stereo not drawn) [Compound 86, 2-[1-(4-Methylphenyl)-1H-pyrazolo[3,4-c]pyridin-3-yl]morpholine] | 500 to 2500 |
| Cc1cc(Cl)ccc1-n1cc(C2CCC(N)CC2)c2ccncc21 (mixture of isomers) [Compound 13, 4-[1-(4-Chloro-2-methylphenyl)-1H-pyrrolo[2,3-c]pyridin-3-yl]cyclohexan-1-amine hydrochloride] | 100 to 500 |
| CN1CCN(Cc2cn(-c3ccc(Cl)cc3)c3cnccc23)CC1 [Compound 24, 1-{[1-(4-Chlorophenyl)-1H-pyrrolo[2,3-c]pyridin-3-yl]methyl}-4-methylpiperazine] | 500 to 2500 |
| CC(C)(C)OC(=O)N1CCC(n2cc(-c3ccc(Cl)cc3)c3cnccc32)CC1 [Compound 2, tert-Butyl 4-[3-(4-chlorophenyl)-1H-pyrrolo[3,2-c]pyridin-1-yl]piperidine-1-carboxylate] | 500 to 2500 |
| Cc1ccc(-n2nc(C3CCOCC3)c3ccncc32)c(F)c1 [Compound 43, 1-(2-Fluoro-4-methylphenyl)-3-(oxan-4-yl)-1H-pyrazolo[3,4-c]pyridine] | 100 to 500 |
| Clc1ccc(-n2cc(C3CCOCC3)c3ncncc32)cc1 [Compound 98, 5-(4-Chlorophenyl)-7-(oxan-4-yl)-5H-pyrrolo[3,2-d]pyrimidine] | 100 to 500 |
| Clc1ccc(-n2nc(N3CCNCC3)c3ccncc32)cc1 [Compound 70, 1-[1-(4-Chlorophenyl)-1H-pyrazolo[3,4-c]pyridin-3-yl]piperazine] | 500 to 2500 |
| Cc1ccc(-n2c(C)c(C3=CCOCC3)c3ccncc32)cc1 [Compound 107, 3-(3,6-Dihydro-2H-pyran-4-yl)-2-methyl-1-(4-methylphenyl)-1H-pyrrolo[2,3-c]pyridine] | < 100 |
